From ChEMBL document CHEMBL1201862, “PubChem BioAssay data set” (2004)
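96-well plates; 48 h exposure; 5 concentrations. Endpoints by linear interpolation between flanking doses. Not reached: highest tested concentration assigned. At the GI50, growth is halved.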 Calls of active or inactive are those of the source. Rule as the data show it: active = GI50 up to about 1.1 µM and inactive = higher.

Assays:
Experiment in all cases: NCI anticancer screen, dose series, 48 h
[1] = test system: HT-29
[2] = test system: T47D
[3] = test system: BT-549
[4] = test system: OVCAR-3
[5] = test system: KM12
[6] = test system: RPMI-8226
[7] = test system: DU-145
[8] = test system: NCI-H522
[9] = test system: SW-620
[10] = test system: SK-OV-3
[11] = test system: 786-0
[12] = test system: UACC-62
[13] = test system: ACHN
[14] = test system: HL-60
[15] = test system: MCF7
[16] = test system: UO-31
[17] = test system: SR
[18] = test system: Malme-3M
[19] = test system: OVCAR-4
[20] = test system: CCRF-CEM

SMILES: COc1cccc(-c2ccc3c4c2O[C@H]2C(=O)CC[C@@]5(O)[C@@H](C3)N(CC3CC3)CC[C@]425)c1
- GI50 [1]: 11.6 µM (inactive)
- GI50 [2]: 18.4 µM (inactive)
- GI50 [3]: 18.4 µM (inactive)
- GI50 [4]: 14.4 µM (inactive)
- GI50 [5]: 17.7 µM (inactive)
- GI50 [6]: 12.6 µM (inactive)
- GI50 [7]: 24.4 µM (inactive)
- GI50 [8]: 17.7 µM (inactive)
- GI50 [9]: 12.2 µM (inactive)
- GI50 [10]: 18.7 µM (inactive)
- GI50 [11]: 16.1 µM (inactive)
- GI50 [12]: 17.1 µM (inactive)
- GI50 [13]: 18.1 µM (inactive)
- GI50 [14]: 19.1 µM (inactive)
- GI50 [15]: 16 µM (inactive)
- GI50 [16]: 14.5 µM (inactive)
- GI50 [17]: 10.3 µM (inactive)
- GI50 [18]: 20.9 µM (inactive)
- GI50 [19]: 15.1 µM (inactive)
- GI50 [20]: 7.29 µM (inactive)

SMILES: CCOC(=O)N(C)CCC1CC=CC(=O)C1c1cccc(OC)c1OC (stereo unspecified)
- GI50 [1]: 13.8 µM (inactive)
- GI50 [2]: 21.4 µM (inactive)
- GI50 [3]: 15 µM (inactive)
- GI50 [4]: 11.8 µM (inactive)
- GI50 [5]: 14.1 µM (inactive)
- GI50 [6]: 14.2 µM (inactive)
- GI50 [7]: 12.1 µM (inactive)
- GI50 [8]: 13.6 µM (inactive)
- GI50 [9]: 20.9 µM (inactive)
- GI50 [10]: 37.4 µM (inactive)
- GI50 [11]: 17 µM (inactive)
- GI50 [12]: 15.6 µM (inactive)
- GI50 [13]: 34 µM (inactive)
- GI50 [14]: 19.4 µM (inactive)
- GI50 [15]: 16.9 µM (inactive)
- GI50 [16]: 16.6 µM (inactive)
- GI50 [17]: 14.3 µM (inactive)
- GI50 [18]: 22.9 µM (inactive)
- GI50 [19]: 28 µM (inactive)
- GI50 [20]: 10.6 µM (inactive)

SMILES: CC(=O)C1=C(C)N(c2ccc(C)cc2)C2(O)C3=C(C(=O)c4ccccc4C3=O)C(O)=CC12Cl (stereo unspecified)
- GI50 [1]: 22.3 µM (inactive)
- GI50 [2]: 26.7 µM (inactive)
- GI50 [3]: 15 µM (inactive)
- GI50 [4]: 4.76 µM (inactive)
- GI50 [5]: 5.37 µM (inactive)
- GI50 [6]: 6.5 µM (inactive)
- GI50 [7]: 24.7 µM (inactive)
- GI50 [8]: 6.14 µM (inactive)
- GI50 [9]: 9.86 µM (inactive)
- GI50 [10]: 55.1 µM (inactive)
- GI50 [11]: 25.4 µM (inactive)
- GI50 [12]: 5.11 µM (inactive)
- GI50 [13]: 15.4 µM (inactive)
- GI50 [14]: 4.31 µM (inactive)
- GI50 [15]: 12.1 µM (inactive)
- GI50 [16]: 11.1 µM (inactive)
- GI50 [17]: 7.06 µM (inactive)
- GI50 [18]: 10.5 µM (inactive)
- GI50 [19]: 17.1 µM (inactive)

SMILES: Cc1cc(S(=O)(=O)/N=C(\NN)Nc2ccc(Cl)cc2)c(S)cc1Cl
- GI50 [1]: 16.1 µM (inactive)
- GI50 [2]: 3.4 µM (inactive)
- GI50 [3]: 10.8 µM (inactive)
- GI50 [4]: 12.4 µM (inactive)
- GI50 [5]: 2.85 µM (inactive)
- GI50 [6]: 12.3 µM (inactive)
- GI50 [7]: 4.35 µM (inactive)
- GI50 [8]: 16 µM (inactive)
- GI50 [9]: 11.1 µM (inactive)
- GI50 [10]: 23 µM (inactive)
- GI50 [11]: 6.34 µM (inactive)
- GI50 [12]: 1.5 µM (inactive)
- GI50 [13]: 3.06 µM (inactive)
- GI50 [14]: 6.27 µM (inactive)
- GI50 [15]: 14.8 µM (inactive)
- GI50 [16]: 5.58 µM (inactive)
- GI50 [17]: 3.76 µM (inactive)
- GI50 [18]: 16.9 µM (inactive)
- GI50 [19]: 13.2 µM (inactive)
- GI50 [20]: 3.28 µM (inactive)

SMILES: CC(=O)OCC1OC(NC(=S)Nn2c(=O)[nH]c3ccccc3c2=O)C(OC(C)=O)C(OC(C)=O)C1OC(C)=O (stereo unspecified)
- GI50 [1]: > 100 µM (inactive)
- GI50 [2]: > 100 µM (inactive)
- GI50 [3]: > 100 µM (inactive)
- GI50 [4]: > 100 µM (inactive)
- GI50 [5]: > 100 µM (inactive)
- GI50 [6]: > 100 µM (inactive)
- GI50 [7]: > 100 µM (inactive)
- GI50 [8]: > 100 µM (inactive)
- GI50 [9]: > 100 µM (inactive)
- GI50 [10]: > 100 µM (inactive)
- GI50 [11]: > 100 µM (inactive)
- GI50 [12]: > 100 µM (inactive)
- GI50 [13]: > 100 µM (inactive)
- GI50 [14]: 57.4 µM (inactive)
- GI50 [15]: > 100 µM (inactive)
- GI50 [16]: > 100 µM (inactive)
- GI50 [17]: 64.9 µM (inactive)
- GI50 [18]: > 100 µM (inactive)
- GI50 [20]: 49.5 µM (inactive)

SMILES: Oc1cc(-c2cccc(F)c2)nc2cc3c(cc12)OCO3
- GI50 [2]: > 100 µM (inactive)
- GI50 [3]: 0.2 µM (active)
- GI50 [4]: 0.0222 µM (active)
- GI50 [5]: 0.0341 µM (active)
- GI50 [6]: 0.0581 µM (active)
- GI50 [7]: 0.0524 µM (active)
- GI50 [8]: 0.029 µM (active)
- GI50 [9]: 0.0356 µM (active)
- GI50 [10]: 0.0698 µM (active)
- GI50 [11]: 0.0441 µM (active)
- GI50 [12]: 0.0345 µM (active)
- GI50 [13]: 0.119 µM (active)
- GI50 [14]: 0.0313 µM (active)
- GI50 [15]: 0.108 µM (active)
- GI50 [16]: 0.124 µM (active)
- GI50 [17]: 0.0241 µM (active)
- GI50 [18]: 0.0454 µM (active)
- GI50 [19]: 1.26 µM (inactive)
- GI50 [20]: 0.0507 µM (active)

SMILES: C[N+](C)([O-])CCC=C1c2ccccc2CCc2ccccc21
- GI50 [1]: 22.3 µM (inactive)
- GI50 [2]: 22.2 µM (inactive)
- GI50 [3]: 41.9 µM (inactive)
- GI50 [4]: 23.6 µM (inactive)
- GI50 [5]: 18.1 µM (inactive)
- GI50 [6]: 11.5 µM (inactive)
- GI50 [7]: 26 µM (inactive)
- GI50 [8]: 16.6 µM (inactive)
- GI50 [9]: 21.8 µM (inactive)
- GI50 [10]: 37.8 µM (inactive)
- GI50 [11]: 4.79 µM (inactive)
- GI50 [12]: 17.1 µM (inactive)
- GI50 [13]: 35 µM (inactive)
- GI50 [14]: 12.6 µM (inactive)
- GI50 [15]: 19.9 µM (inactive)
- GI50 [17]: 16.7 µM (inactive)
- GI50 [18]: 18.5 µM (inactive)
- GI50 [19]: 28.2 µM (inactive)
- GI50 [20]: 18.6 µM (inactive)
